What all share (test): Cell Titer Glo cell viability assay, 48 h
Common to all, as to type: cell-based, human
Conditions in all cases: 48 h, mean of 2 independent experiments, 0 = less than 10 nM, cell line not given, read-out: IC50 of inhibitors on cell lines, m (mean)

Experiment [1] has as its system HEL.92.1.7. On the procedure: (§1) The activity of the kinase inhibitor collection against a panel of human leukemia cell lines was determined in cell viability assays run over 48 h using the Cell Titer Glo reagent.
(§2) Figure 1 Effects of kinase inhibition on the proliferation of leukemia cells A. Human leukemia cell lines were treated with duplicate serial dilutions of kinase inhibitors and the effect on cell viability was determined by Cell Titer Glo assay after 48 hours. […] HL-60 cells were treated with serial dilutions of mTor/PI3K B. and MEK C. inhibitors and the effect on cell viability was determined after 48 hours. Data shown is the mean ± SEM of 3 independent experiments.
(§3) Leukemia and lymphoma cell lines were grown in RPMI containing 10% FCS. […] Cell lines are routinely tested for mycoplasma and genotyped by short tandem repeating (STR) profiling to confirm identity.
(§4) Compounds were obtained from SynMedChem and dissolved at […] in DMSO. Serial 2-fold dilutions of each compound were prepared in DMSO using a liquid handling robot (Janus, Perkin Elmer). Each dilution (100nL) was transferred to duplicate tissue culture plates containing 50 μL of media containing 5 × 10^3 cells using a 384 well pin tool. Cells were incubated for 48 h and cell viability was determined using Cell Titer Glow reagents as described by the manufacturer (Promega). Data was acquired using a luminescent plate reader (Envision, Perkin Elmer) and analysed using Activity Base (IDBS, Guilford, UK) and visualised using Spotfire (TIBCO, Palo Alto, CA) as described previously. Each cell line was assayed in independent experiments on at least two occasions. […] Serial 2-fold dilutions of each compound were prepared in media containing 0.2% DMSO and 50 μl of each dilution was added to 10^4 cells in 50 μl of media. Cells were incubated for 48 h and cell viability was determined using Cell Titer Glow assay as described above.

For experiment [2], the system named is EOL-1. On the procedure: as §1, §2, §3, §4
Experiment [3] relates to JURKAT. On the procedure:
as §1, §2, §3, §4

In experiment [4] the test system is THP-1. On the procedure: as §1, §2, §3, §4
Experiment [5] has as its system MV4;11. On the procedure:
as §1, §2, §3, §4

The test system of experiment [6] is KU-812. On the procedure: as §1, §2, §3, §4
In experiment [7] the test system is HL-60. On the procedure:
as §1, §2, §3, §4

Experiment [8] relates to U937. On the procedure:
as §1, §2, §3, §4

Experiment [9] concerns MEG-01. On the procedure:
as §1, §2, §3, §4

For experiment [10], the system named is K562. On the procedure: as §1, §2, §3, §4
The test system of experiment [11] is MOLT4. On the procedure: as §1, §2, §3, §4
Experiment [12] deals with OCI-AML3. On the procedure:
as §1, §2, §3, §4

Results on 14 molecules are retold here after publication PMC5601625, “Defining a therapeutic window for kinase inhibitors in leukemia to avoid neutropenia” (Oncotarget, 2017).

Read-outs that look alike come from different tables or passages of the source. A value given as a limit tells only on which side of the number the result lay.

In the case of `Oc1ccc(-c2nc(-c3ccncc3)c(-c3ccc(F)cc3)[nH]2)cc1` [SB202190], the concentration for half-maximal inhibition (IC50) (commonly the midpoint of a concentration-inhibition curve) in [1] (Homo sapiens) is > 10 µM; in experiment [2] (Homo sapiens, EOL1), 3.68 µM; in [3] (Homo sapiens), > 10 µM; in experiment [4] (Homo sapiens) it was > 10 µM; in [5] (Homo sapiens), 7 µM; in [6] (Homo sapiens, KU812), 9.36 µM. In addition, the half-maximal inhibitory concentration (IC50) in [7] (Homo sapiens) was > 10 µM; in [8] (Homo sapiens, U-937), 6.6 µM; in [9] (Homo sapiens), 6.83 µM; in experiment [10] (Homo sapiens), > 10 µM; in experiment [11] (Homo sapiens, MOLT-4), > 10 µM; in [12] (Homo sapiens, OCI-AML-3), > 10 µM.

In the case of `COc1nccc(-c2c(-c3ccc(F)cc3)ncn2C2CCNCC2)n1` [SB242235], the concentration for half-maximal inhibition (IC50) was > 10 µM in [1] (Homo sapiens); 0.51 µM in [2] (Homo sapiens, EOL1); > 10 µM in [3] (Homo sapiens); > 10 µM in experiment [4] (Homo sapiens); 6.16 µM in experiment [5] (Homo sapiens); > 10 µM in experiment [6] (Homo sapiens, KU812). Besides, the IC50 in experiment [7] (Homo sapiens) is > 10 µM; in experiment [8] (Homo sapiens, U-937), > 10 µM; in experiment [9] (Homo sapiens) it was 2.18 µM; in experiment [10] (Homo sapiens), > 10 µM; in experiment [11] (Homo sapiens, MOLT-4), > 10 µM; in [12] (Homo sapiens, OCI-AML-3) it was > 10 µM.

In the case of `CN(C)CCOc1ccc(-c2nc(-c3ccncc3)c(-c3ccc4c(c3)CC/C4=N\O)[nH]2)cc1` [SB590885], the IC50 in experiment [1] (Homo sapiens) was found to be 5.26 µM; in experiment [2] (Homo sapiens, EOL1), 1.3 µM; in experiment [3] (Homo sapiens), 3.76 µM; in experiment [4] (Homo sapiens), 3.31 µM; in experiment [5] (Homo sapiens), 2.59 µM; in experiment [6] (Homo sapiens, KU812), 5.01 µM. In addition, the half-inhibitory concentration (IC50) is 1.41 µM in experiment [7] (Homo sapiens); 3.42 µM in [8] (Homo sapiens, U-937); 5.04 µM in experiment [9] (Homo sapiens); 4.06 µM in experiment [10] (Homo sapiens); 5.93 µM in experiment [11] (Homo sapiens, MOLT-4); 2.71 µM in [12] (Homo sapiens, OCI-AML-3).

As to `NC(=O)c1ccc2[nH]ccc2c1` [SD169], the IC50 in [1] is > 10 µM; in [2], 5.12 µM; in [3], > 10 µM; in [4], > 10 µM; in experiment [5], > 10 µM; in [6], > 10 µM. For the same molecule, the 50% inhibitory concentration (IC50) in [7], in experiment [8], in [9], in [10], in [11] and in experiment [12] was > 10 µM each time.

As to `O=C1NC(=O)/C(=C/c2cccc(C(F)(F)F)c2)S1` [SMI-4a], the concentration for half-maximal inhibition (IC50) is > 10 µM in experiment [1]; 0.13 µM in [2]; > 10 µM in experiment [3]; > 10 µM in [4]; 9.71 µM in experiment [5]; 4.54 µM in experiment [6]. Further, the IC50 was > 10 µM in experiment [7]; > 10 µM in [8]; 5.78 µM in experiment [9]; 2.74 µM in experiment [10]; > 10 µM in [11]; > 10 µM in [12].

`O=C(Nc1cccc(Cl)c1)Nc1ncc(CCNc2ncnc3ccsc23)s1` [SNS-314]: the IC50 is > 10 µM in [1] (Homo sapiens); 0.02 µM in experiment [2] (Homo sapiens, EOL1); 9.01 µM in experiment [3] (Homo sapiens); 7.37 µM in experiment [4] (Homo sapiens); 0.01 µM in [5] (Homo sapiens); 0.83 µM in experiment [6] (Homo sapiens, KU812). In addition, the half-maximal inhibitory concentration (IC50) was 6.62 µM in experiment [7] (Homo sapiens); 5.04 µM in experiment [8] (Homo sapiens, U-937); 8.15 µM in [9] (Homo sapiens); 9.11 µM in experiment [10] (Homo sapiens); 3.58 µM in [11] (Homo sapiens, MOLT-4); > 10 µM in experiment [12] (Homo sapiens, OCI-AML-3).

For the molecule `CN(C)CCOc1cc(-c2cn[nH]c2)ccc1NC(=O)C1COc2ccccc2O1` (stereo not drawn) [SR3677], the half-maximal inhibitory concentration (IC50) was > 10 µM in [1] (Homo sapiens); 0.75 µM in [2] (Homo sapiens, EOL1); > 10 µM in experiment [3] (Homo sapiens); > 10 µM in experiment [4] (Homo sapiens); 2.64 µM in experiment [5] (Homo sapiens); 1.53 µM in experiment [6] (Homo sapiens, KU812). In addition, the IC50 in experiment [7] (Homo sapiens) was 9.1 µM; in experiment [8] (Homo sapiens, U-937), 5.96 µM; in experiment [9] (Homo sapiens), 8.05 µM; in experiment [10] (Homo sapiens) it was > 10 µM; in experiment [11] (Homo sapiens, MOLT-4), > 10 µM; in [12] (Homo sapiens, OCI-AML-3) it was > 10 µM.

For `Cc1c[nH]c(/C=C2\C(=O)Nc3ccccc32)c1CCC(=O)O` [SU-5402], the IC50 in experiment [1] was > 10 µM; in experiment [2], 1.43 µM; in [3] it was > 10 µM; in experiment [4] it was > 10 µM; in [5], 0.73 µM; in [6], 9.28 µM. In addition, the IC50 in experiment [7], in experiment [8], in [9], in [10], in [11] and in experiment [12] was > 10 µM each time.

For `Cc1[nH]c(/C=C2\C(=O)Nc3ccccc32)c(C)c1CCC(=O)O` [SU-6668], the IC50 in [1] (Homo sapiens) is > 10 µM; in [2] (Homo sapiens, EOL1) it was 0.84 µM; in experiment [3] (Homo sapiens), > 10 µM; in [4] (Homo sapiens), > 10 µM; in experiment [5] (Homo sapiens) it was 5.11 µM; in experiment [6] (Homo sapiens, KU812) it was > 10 µM. Also, the IC50 in experiment [7] (Homo sapiens) is > 10 µM; in experiment [8] (Homo sapiens, U-937), > 10 µM; in [9] (Homo sapiens), > 10 µM; in [10] (Homo sapiens) it was 8.11 µM; in experiment [11] (Homo sapiens, MOLT-4) it was > 10 µM; in experiment [12] (Homo sapiens, OCI-AML-3) it was > 10 µM.

As to `CCN(CC)CCNC(=O)c1c(C)[nH]c(/C=C2\C(=O)Nc3ccc(F)cc32)c1C` [Sunitinib], the IC50 in experiment [1] (Homo sapiens) is 2.61 µM; in experiment [2] (Homo sapiens, EOL1) it was 0.01 µM; in experiment [3] (Homo sapiens), 1.62 µM; in experiment [4] (Homo sapiens) it was 1.8 µM; in [5] (Homo sapiens), 0.01 µM; in experiment [6] (Homo sapiens, KU812), 1.56 µM. In addition, the concentration for half-maximal inhibition (IC50) in experiment [7] (Homo sapiens) amounted to 1.46 µM; in [8] (Homo sapiens, U-937), 1.16 µM; in experiment [9] (Homo sapiens), 2.39 µM; in [10] (Homo sapiens), 4.75 µM; in experiment [11] (Homo sapiens, MOLT-4), 2.54 µM; in experiment [12] (Homo sapiens, OCI-AML-3), 1.02 µM.

As for `CCc1nc(-c2cccc(C)c2)c(-c2ccnc(NC(=O)c3ccccc3)c2)s1` [TAK-715], the IC50 is > 10 µM in experiment [1] (Homo sapiens); 2.33 µM in experiment [2] (Homo sapiens, EOL1); 9.58 µM in [3] (Homo sapiens); > 10 µM in experiment [4] (Homo sapiens); 7.8 µM in [5] (Homo sapiens); 6.14 µM in experiment [6] (Homo sapiens, KU812). Further, the IC50 is > 10 µM in [7] (Homo sapiens); 4.11 µM in experiment [8] (Homo sapiens, U-937); 7.37 µM in [9] (Homo sapiens); 7.41 µM in experiment [10] (Homo sapiens); > 10 µM in [11] (Homo sapiens, MOLT-4); > 10 µM in experiment [12] (Homo sapiens, OCI-AML-3).

`Cc1cc(C(C)Nc2ccccc2)c2nc(N3CCOCC3)cc(=O)n2c1` (stereo not drawn) [TGX221]: the concentration for half-maximal inhibition (IC50) in experiment [1] is > 10 µM; in experiment [2], 0.43 µM; in [3], 9.84 µM; in experiment [4], > 10 µM; in experiment [5], 0.65 µM; in experiment [6], > 10 µM. Also, the IC50 in [7] was > 10 µM; in experiment [8] it was 9.85 µM; in experiment [9], > 10 µM; in experiment [10] it was 9.16 µM; in experiment [11], > 10 µM; in experiment [12], 9.72 µM.

In the case of `CN(C)C/C=C/C(=O)Nc1cc2c(Nc3ccc(F)c(Cl)c3)ncnc2cc1O[C@H]1CCOC1` [TOVOK], the IC50 in experiment [1] (Homo sapiens) came to 1.94 µM; in experiment [2] (Homo sapiens, EOL1), 0.68 µM; in experiment [3] (Homo sapiens) it was 2.11 µM; in [4] (Homo sapiens) it was 4.31 µM; in [5] (Homo sapiens), 0.44 µM; in experiment [6] (Homo sapiens, KU812) it was 2.71 µM. The IC50 in experiment [7] (Homo sapiens) is 1.8 µM; in experiment [8] (Homo sapiens, U-937), 2.06 µM; in experiment [9] (Homo sapiens), 5.02 µM; in experiment [10] (Homo sapiens) it was 5.72 µM; in [11] (Homo sapiens, MOLT-4), 2.37 µM; in experiment [12] (Homo sapiens, OCI-AML-3) it was 3.36 µM.

Take `COc1cc2c(N3CCN(C(=O)Nc4ccc(OC(C)C)cc4)CC3)ncnc2cc1OCCCN1CCCCC1` [Tandutinib]: the IC50 in experiment [1] (Homo sapiens) was > 10 µM; in experiment [2] (Homo sapiens, EOL1), 0.02 µM; in [3] (Homo sapiens), 4.38 µM; in [4] (Homo sapiens), 7.42 µM; in experiment [5] (Homo sapiens) it was 0.08 µM; in [6] (Homo sapiens, KU812) it was 6.6 µM. For the same molecule, the 50% inhibitory concentration (IC50) in experiment [7] (Homo sapiens) was found to be 7.58 µM; in experiment [8] (Homo sapiens, U-937), 7.44 µM; in experiment [9] (Homo sapiens), 7.91 µM; in [10] (Homo sapiens), 8.85 µM; in [11] (Homo sapiens, MOLT-4), 9.77 µM; in experiment [12] (Homo sapiens, OCI-AML-3) it was 4.87 µM.
